This is an account of results in the OligoGym collection.

HELM strings list units from the 5' end as sugar, base in round brackets, then linkage (d deoxyribose, r ribose, m 2'-O-methyl, p phosphodiester). Strings are as the collection lists them; they lack the last nucleoside at the 3' end of the tested compound. [moe] = 2'-O-(2-methoxyethyl) (MOE); [sp] = phosphorothioate linkage; [m5C] = 5-methylcytosine

In the data set the target is LRRK2. The experiment in a line: mouse, dose not given. The settings on record: ASO.
Consider “RNA1{[moe](A)[sp].[moe](A)p.[moe](A)[sp].[moe](T)[sp].[moe](G)[sp].d(A)[sp].d(G)[sp].d(T)[sp].d(G)[sp].d([m5C])[sp].d(A)[sp].d(T)[sp].d(G)[sp].d(G)[sp].d([m5C])[sp].[moe](A)[sp].[moe](T)p.[moe]([m5C])[sp].[moe](A)}$$$$ (last 3' nucleoside missing)”, for which the 3 h FOB score was 4 score 0-7.
The same measure for “RNA1{[moe](A)[sp].[moe](A)p.[moe](G)[sp].[moe](T)[sp].[moe]([m5C])[sp].d([m5C])[sp].d(A)[sp].d(A)[sp].d(A)[sp].d(T)[sp].d(G)[sp].d(T)[sp].d(G)[sp].d(T)[sp].d([m5C])[sp].[moe](A)[sp].[moe](A)p.[moe](A)[sp].[moe]([m5C])}$$$$ (last 3' nucleoside missing)”: 5 score 0-7; for “RNA1{[moe](A)[sp].[moe](A)p.[moe](T)[sp].[moe](G)[sp].[moe](A)[sp].d(G)[sp].d(T)[sp].d(G)[sp].d([m5C])[sp].d(A)[sp].d(T)[sp].d(G)[sp].d(G)[sp].d([m5C])[sp].d(A)[sp].[moe](T)[sp].[moe]([m5C])p.[moe](A)[sp].[moe](A)}$$$$ (last 3' nucleoside missing)”: 3 score 0-7; for “RNA1{[moe](A)[sp].[moe](A)p.[moe](T)p.[moe](G)p.[moe]([m5C])[sp].d(T)[sp].d(T)[sp].d(T)[sp].d([m5C])[sp].d(A)[sp].d(T)[sp].d(A)[sp].d(G)[sp].d([m5C])[sp].d(T)[sp].[moe](T)p.[moe]([m5C])p.[moe]([m5C])[sp].[moe](A)}$$$$ (last 3' nucleoside missing)”: 1 score 0-7.
Under “RNA1{[moe](A)[sp].[moe](A)p.[moe]([m5C])[sp].[moe](G)[sp].[moe]([m5C])[sp].d(A)[sp].d([m5C])[sp].d(T)[sp].d(T)[sp].d(A)[sp].d(A)[sp].d([m5C])[sp].d(A)[sp].d(A)[sp].d(T)[sp].[moe](A)[sp].[moe](T)p.[moe]([m5C])[sp].[moe](A)}$$$$ (last 3' nucleoside missing)” stands 0 score 0-7; under “RNA1{[moe](A)[sp].[moe](G)[sp].[moe](T)[sp].[moe](T)[sp].[moe]([m5C])[sp].d([m5C])[sp].d(T)[sp].d(T)[sp].d([m5C])[sp].d(A)[sp].d(G)[sp].d(T)[sp].d([m5C])[sp].d(T)[sp].d([m5C])[sp].[moe](A)[sp].[moe](A)p.[moe](G)[sp].[moe](G)}$$$$ (last 3' nucleoside missing)”, 7 score 0-7; under “RNA1{[moe](A)[sp].[moe](G)p.[moe](G)p.[moe](A)p.[moe](G)[sp].d(A)[sp].d(A)[sp].d(T)[sp].d(G)[sp].d(T)[sp].d(A)[sp].d(T)[sp].d(A)[sp].d(T)[sp].d(G)[sp].[moe]([m5C])p.[moe](T)p.[moe](T)[sp].[moe]([m5C])}$$$$ (last 3' nucleoside missing)”, 6 score 0-7.
Under “RNA1{[moe](A)[sp].[moe](G)p.[moe](G)p.[moe]([m5C])p.[moe](A)[sp].d(T)[sp].d(T)[sp].d(T)[sp].d([m5C])[sp].d(A)[sp].d(T)[sp].d(A)[sp].d(T)[sp].d(A)[sp].d(G)[sp].[moe](T)p.[moe]([m5C])p.[moe](G)[sp].[moe](G)}$$$$ (last 3' nucleoside missing)” stands 4 score 0-7; under “RNA1{[moe](A)[sp].[moe](G)p.[moe](T)[sp].[moe](G)[sp].[moe]([m5C])[sp].d(A)[sp].d(T)[sp].d(G)[sp].d(G)[sp].d([m5C])[sp].d(A)[sp].d(T)[sp].d([m5C])[sp].d(A)[sp].d(A)[sp].[moe](A)[sp].[moe](A)p.[moe](A)[sp].[moe](T)}$$$$ (last 3' nucleoside missing)”, 2 score 0-7.
